Measurements as given in patent US11148998B2, “Dimethyl-nonatetraenyl-trimethyl-cyclohexyl compounds and uses thereof” (The Regents of the University of Michigan, priority 2017, dated 2021).

Experiments:
[1] = tested on: human dermal fibroblasts; assay: Retinoid-induced fibroblast survival under low-calcium conditions; assay type: cell-based; details: for protection of fibroblasts from lysis (percentage of initially present cells still viable): 0.1 to 5 μg/mL
Description: Human dermal fibroblasts are isolated from skin biopsies as described previously and grown in monolayer culture using DMEM supplemented with 10% fetal bovine serum as culture medium (see, e.g., Varani J, et al., J Clin Invest. 1994; 94; Varani J, et al., J. Invest. Dermatol. 94:717-723, 1990). Growth is at 37° C. in a humidified atmosphere containing 5% CO2 and 95% air. For experimental studies, cells are plated at 5×10^4 cells per well in wells of a 24-well culture dish in the same culture medium. One day later, cells are washed and the DMEM culture medium is replaced with Keratinocyte Basal Medium (KBM).
In this assay, low-passage human dermal fibroblasts are grown for three days in Keratinocyte Basal Medium (KBM) at a calcium concentration (0.1 mM) that is too low to support survival. […] How retinoids act to prevent fibroblast lysis is not fully understood, but part of the mechanism involves modulation of calcium transit across the cell membrane in the presence of the active retinoids (see, e.g., Varani J, et al., Am. J. Path. 136:1275-1281, 1990; Varani K, et al., Am J. Pathol. 147:718-729, 1995; Varani J, et al., Amer. J. Pathol. 148: 1307-1312, 1996).

[2] = tested on: human dermal fibroblasts; assay: Generation of pro-inflammatory cytokines by fibroblasts (multiplex ELISA); assay type: cell-based; details: KBM 1.5 mM calcium, two days, culture fluids
Description: Fibroblasts were grown in KBM supplemented with 1.5 mM calcium (i.e., as in the fibroblast cytotoxicity assay) for two days. Culture fluids obtained at the end of the incubation period were assessed for several pro-inflammatory cytokines using a multiplex (ELISA-type) assay. Values shown are means and ranges based on duplicate samples in a single experiment. The experiment was repeated two times with similar results.
It is believed that the pro-inflammatory cytokines are “drivers” of the retinoid-induced skin irritation response. […] In this experiment, fibroblasts were cultured for two days in KBM supplemented with 1.5 mM calcium (i.e., as in the cytotoxicity assay). Culture fluids were collected after two days of incubation and subjected to a multiplex enzyme-linked immunosorbant assay (ELISA) for the following cytokines: TNF-α, IL-1β, IL-6, IL-8, MCP-1 and CXCL-1.

[3] = tested on: human epidermal keratinocytes; assay: Retinoid-induced keratinocyte desquamation (cell-cell detachment, trypsin/EDTA); assay type: cell-based; details: two days, KBM 1.5 mM calcium
Description: At the end of the incubation period, the cells were exposed to a combination of trypsin and EDTA and the percentage of cells that detached from one another were assessed over time.
Human epidermal keratinocytes are isolated from the same skin biopsies as fibroblasts and grown in monolayer culture using Keratinocyte Growth Medium (KGM) as described previously (see, e.g., Varani J, et al., J Clin Invest. 1994; Varani J, et al., J. Invest. Dermatol. 94:717-723, 1990; Varani J, et al., J. Invest. Dermatol. 1989; 93:449-454). Growth is at 37° C. in a humidified atmosphere containing 5% CO2 and 95% air. For some studies, experiments use the HaCat line of immortalized human epidermal keratinocytes in place of primary or low-passage cells. Growth for these cells is exactly as with low-passage keratinocytes.
When keratinocytes are grown in monolayer culture, proliferation is optimal under low-calcium (0.05-0.15 mM) conditions. When the calcium concentration is raised to 1.5 mM, the keratinocyte differentiation occurs and proliferation slows. Under such conditions, strong cell-cell connections are made. […] The end result is that cells separate more easily from one another (see, e.g., Varani J, et al., J. Invest. Dermatol. 1989; 93:449-454; Varani J, et al., J Invest. Dermatol. 97:917-921, 1991; Varani J, et al., Am. Path. 138:887-895, 1991). Retinoid efficacy in acne is dependent, in part at least, on reduced epidermal cohesion and ability of acne lesional skin to slough during washing.
As a way to quantify detachment, keratinocytes grown for 2 days in culture medium containing 1.5 mM calcium were washed and exposed to a combination of trypsin and EDTA. Cell detachment from neighboring cells was assessed at timed intervals.

[4] = tested on: serum pro-inflammatory cytokines; details: mouse, in vivo
From the text: Each of the 4 experimental retinoids was made up in DMSO as 0.1% and 0.3% solutions. The material was applied to the treatment area (2 cm^2 area) on a dot marked area on the inter-scapular back) once daily for 7 consecutive days or for 21 consecutive days. The test agent was gently rubbed into the test site after application. As a control, Tretinoin-0.1% was used. […] This is a commonly-prescribed anti-acne medicine. A set amount of the test article, DMSO, DMSO plus test drug, or Tretinoin cream (35 mg) was delivered using a Gilson MICROMAN fully adjustable positive placement pipette.
Serum was obtained from all mice at the end of the study and evaluated for levels of pro-inflammatory cytokines. For this, the same multiplex ELISA used with human samples was employed except that mouse-recognizing antibodies replaced antibodies used to detect the human counterparts.

| SMILES | protection of fibroblasts from lysis (percentage of initially present cells still viable) ([1]; KBM 0.1 mM calcium, three days) | protection of fibroblasts from lysis (percentage of initially present cells still viable) ([1]; KBM 0.1 mM calcium, three days, listed as Compound 1) | induction of pro-inflammatory cytokines (TNF-α, IL-1β, IL-6, IL-8, MCP-1, CXCL-1) [2] | induction of pro-inflammatory cytokines (TNF-α, IL-1β, IL-6, IL-8, MCP-1, CXCL-1) ([2]; listed as Compound 1) | ease of cell-cell separation (percentage of cells detached over time) ([3]; 1.0 μg/mL) | IL-1β serum level [4] | TNF-α serum level [4] | induction of pro-inflammatory cytokines (TNF-α, IL-1β, IL-6, IL-8, MCP-1, CXCL-1) ([2]; listed as Compound 2) | ease of cell-cell separation (percentage of cells detached over time) ([3]; 2.5 μg/mL) | fall-off in cell numbers ([1]; 5 μg/mL, low-calcium survival assay) | concentration at which protection was optimal ([1]; KBM 0.1 mM calcium, three days) [µg/mL] | IL-6 serum level [4] [pg/mL] | KC/IL-8 serum level [4] [pg/mL] | MCP-1 serum level [4] | serum pro-inflammatory cytokine levels compared to control mice (in words) [4] |
| --- | --- | --- | --- | --- | --- | --- | --- | --- | --- | --- | --- | --- | --- | --- | --- |
| CC1=C(/C=C/C(C)=C\C=C\C(C)=C\C(=O)N(C)CC(=O)C(C)(C)C)C(C)(C)CCC1 [Example 1, (2E,4E 6Z,8E)-N-(3,3-dimethyl-2-oxobutyl)-N,3,7-trimethyl-9-(2,6,6-trimethylcyclohex-1-en-1-yl)nona-2,4,6,8-tetraenamide] | capable of protecting fibroblasts from lysis under low-calcium conditions | as effective as ATRA | no evidence of cytokine induction at the highest concentration | not observed | more potent than ATRA | low | low | – | – | – | – | – | – | – | – |
| CC1=C(/C=C/C(C)=C\C=C\C(C)=C\C(=O)N(C)CC(=O)c2ccccc2)C(C)(C)CCC1 [Example 2, (2E,4E 6Z,8E)-N,3,7-trimethyl—N-(2-oxo-2-phenylethyl)-9-(2,6,6-trimethylcyclohex-1-en-1-yl)nona-2,4,6,8-tetraenamide] | capable of protecting fibroblasts from lysis under low-calcium conditions | – | no evidence of cytokine induction at the highest concentration | – | – | low | low | not observed | comparable to ATRA at 1 μg/mL | – | – | – | – | – | – |
| CC1=C(/C=C/C(C)=C/C=C/C(C)=C/C(=O)O)C(C)(C)CCC1 [ATRA, all-trans retinoic acid, reference compound] | capable of protecting fibroblasts from lysis under low-calcium conditions | – | induced a strong up-regulation of several cytokines | – | increased the ease of cell-cell separation as compared to control | low | low | – | – | incipient toxicity | 1.0 | 1.55 ± 0.66 | 23 ± 4 | 158 ^± 43 pg/mL | increase in levels of MCP-1, IL-6 and KC/IL-8 |
